Literature values, collected in US20110256072A1, “FOOD AND COMPOSITION EACH COMPRISING PHOSPHORYLATED SACCHARIDE, POLYPHENOL AND FLUORIDE” (EZAKI GLICO CO., LTD., priority 2008, published 2011).
“And” between values parts separate entries of the source, which are not always exact repeats. Identical values can stand only once. Like-named read-outs stand apart in the source and are kept apart here.

System: dental caries

Row | SMILES | Inhibition rate (in vivo) | also measured
1 | [F-].[Na+] [2% Sodium fluoride solution, Sodium fluoride] | 20-40% | –
2 | [F-].[Na+] [NaF: 0.05% every day method, NaF] | – | Inhibition rate (Fluoride mouth washing method, 226 ppm, Permanent tooth): 20-50%
3 | [F][Sn][F] [SnF2: 8% Solution, SnF2] | – | Inhibition rate (Local application to dental surface, 19,400 ppm, Permanent tooth): 20-50%
4 | [F-].[Na+] [Sodium fluoride] | 25-50% and 20-40% and ~30% | –
